{"source": "patent US5817332A", "about": "“Transdermal drug delivery system” (priority 1994, dated 1998)", "key": {"[1]": {"conditions": "as pH is increased; cited from earlier work"}, "[2]": {"assay": "In vitro release of DEX from silicone depot patches in diffusion cells", "format": "physicochemical", "conditions": "trisodium phosphate in device core", "description": "The effect of cyclodextrin on the release rate of DEX was determined using reservoir-type silicone depot patches. Typical composition of the reservoir containing the drug and CD in molar ratio 1:1 was:\n______________________________________\nDEX HCl 200 μg (170 μg DEX base)\nTris-buffer (TRIS), trisodium phosphate (TP), disodium phosphate (DP), sodium phosphate (MP) or the mixture of disodium and sodium phosphates (50/50) (MP/DP) were used to buffer the devices. 2-HP-β-CD was added to the device in three different ways:\n1) without precomplexation with DEX\n2) using an inclusion complex of DEX and CD prepared by grinding\n3) using an inclusion complex of DEX and CD prepared by spray-drying\nIn some patches the amount of pH-adjusting agent (DP) was decreased from 1600 μg to 200 μg or 2-HP-γ-CD was used instead of β-derivative.\nSilicone membranes for the devices were made of MDX-4-4210 medical grade elastomer (Dow Corning, Midland, […].) by mixing 10% (w/w) MDX-4240 curing agent with the elastomer. […]\nIn vitro release of DEX from the devices was determined in diffusion cells at 34 ±1° C. […] At predetermined times, samples of 250 μl were withdrawn, replaced by fresh buffer solution, and the concentration of DEX in the samples was analyzed by RP-HPLC. After each release experiment pH in the devices was measured with a microelectrode."}, "[3]": {"assay": "Phase-solubility of dexmedetomidine in aqueous 2-HP-β-CD solutions (phosphate buffers, 32 °C)", "format": "physicochemical", "conditions": "for solubility at 240 h: phosphate buffer with 2-hp-β-cd, 32° C., read-out: DEX solubility", "description": "The excess amount of the drug was added to pH 6.0, 7.0 and 8.0 phosphate buffers (142 mM) and the pHs of the suspensions were readjusted with 0.2M NaOH. The suspensions were shaken at 32° C. in a water bath for 10 days. After equilibration, the saturated solutions of DEX were filtered, diluted and the concentrations of DEX were analyzed by RP-HPLC at 210 nm."}}, "note": "Like-named read-outs stand apart in the source and are kept apart here.", "data": [{"smiles": "Cc1cccc([C@H](C)c2cnc[nH]2)c1C", "note": "[DEX, dexmedetomidine]", "values": [{"measurement": "aqueous solubility (in words)", "setting": "[1]", "value": "drops dramatically"}, {"measurement": "increase of DEX release rate by trisodium phosphate", "setting": "[2]", "value": "over 180 times"}, {"measurement": "influence of 2-HP-β-CD on solubility of DEX (in words)", "setting": "[3]; pH 6.0, 7.0 and 8.0", "value": "the greatest as the pH of the solutions was highest"}, {"measurement": "improvement of the solubility of DEX by addition of 50% (m/V) 2-HP-β-CD", "setting": "[3]; pH 6.0, 7.0 and 8.0 buffers", "value": "19-99 times"}, {"measurement": "solubility at 240 h", "setting": "[3]; pH 6, pH 6, 2-HP-β-CD 5 % (m/V) (35 mM)", "value": 7060, "unit": "µg/mL"}, {"measurement": "solubility at 240 h", "setting": "[3]; pH 6, pH 6, 2-HP-β-CD 10 % (m/V) (70 mM)", "value": 10000, "unit": "µg/mL"}, {"measurement": "solubility at 240 h", "setting": "[3]; pH 6, pH 6, 2-HP-β-CD 15 % (m/V) (105 mM)", "value": 12800, "unit": "µg/mL"}, {"measurement": "solubility at 240 h", "setting": "[3]; pH 6, pH 6, 2-HP-β-CD 30 % (m/V) (209 mM)", "value": 20900, "unit": "µg/mL"}, {"measurement": "solubility at 240 h", "setting": "[3]; pH 6, pH 6, 2-HP-β-CD 50 % (m/V) (349 mM)", "value": 36800, "unit": "µg/mL"}, {"measurement": "solubility at 240 h", "setting": "[3]; pH 7, pH 7, 2-HP-β-CD 5 % (m/V) (35 mM)", "value": 1600, "unit": "µg/mL"}, {"measurement": "solubility at 240 h", "setting": "[3]; pH 7, pH 7, 2-HP-β-CD 10 % (m/V) (70 mM)", "value": 3040, "unit": "µg/mL"}, {"measurement": "solubility at 240 h", "setting": "[3]; pH 7, pH 7, 2-HP-β-CD 15 % (m/V) (105 mM)", "value": 4910, "unit": "µg/mL"}, {"measurement": "solubility at 240 h", "setting": "[3]; pH 7, pH 7, 2-HP-β-CD 30 % (m/V) (209 mM)", "value": 9330, "unit": "µg/mL"}, {"measurement": "solubility at 240 h", "setting": "[3]; pH 7, pH 7, 2-HP-β-CD 50 % (m/V) (349 mM)", "value": 12800, "unit": "µg/mL"}, {"measurement": "solubility at 240 h", "setting": "[3]; pH 8, pH 8, 2-HP-β-CD 5 % (m/V) (35 mM)", "value": 1230, "unit": "µg/mL"}, {"measurement": "solubility at 240 h", "setting": "[3]; pH 8, pH 8, 2-HP-β-CD 10 % (m/V) (70 mM)", "value": 2260, "unit": "µg/mL"}, {"measurement": "solubility at 240 h", "setting": "[3]; pH 8, pH 8, 2-HP-β-CD 15 % (m/V) (105 mM)", "value": 3770, "unit": "µg/mL"}, {"measurement": "solubility at 240 h", "setting": "[3]; pH 8, pH 8, 2-HP-β-CD 30 % (m/V) (209 mM)", "value": 7200, "unit": "µg/mL"}, {"measurement": "solubility at 240 h", "setting": "[3]; pH 8, pH 8, 2-HP-β-CD 50 % (m/V) (349 mM)", "value": 13300, "unit": "µg/mL"}]}]}
